Data reported in patent US20230293447A1, “CLEAVABLE LIPIDIC COMPOUNDS, COMPOSITIONS CONTAINING THEREOF, AND USES THEREOF” (priority 2020, published 2023).

What was measured:
[1] = test system: hEPO; assay: hEPO expression in mouse serum after intramuscular injection of LNPs containing hEPO mRNA (ELISA); format: in vivo, Balb/c ByJ mice; settings: 1 μg-dose of hEPO mRNA IM in quadriceps, serum 6 hours post-injection; LNPs lipid/DSPC/Chol/DMG-PEG2000 50:10:3.5:1.5, N/P 12
Experimental: LNPs comprising lipidic compound of formula (III) (or DOG-Cleave) or one of the compounds (VI), (XVII), (XIX), (XXI), (XXII), (XXIV), (XXVII) and (XXVIII), DSPC, Chol and DMG-PEG2000 at a molar ratio of 50:10:3.5:1.5, and hEPO mRNA at a N/P charge ratio=12 (unless otherwise specified in the table), were prepared as described in Example 30 by using the NanoassemblR. An Aqueous/Ethanolic phase volume ratio of 3/1 and at total flow rate of 4 mL/min was used. LNPs were prepared at a concentration of 60 μg of hEPO mRNA/mL in PBS 1×.
Four 8-week-old mice per group were injected on DO via intramuscular route in the quadriceps with 1 μg-dose of hEPO mRNA formulated in LNPs Lip. (IV)/DSPC under a final volume of 50 μL. As negative control, 4 mice received the same volume of PBS (for accelerated stability study and lipid screening) or Citrate Buffer (lipid screening)
Blood samples were collected 6 hours post-injection to measure the expression of hEPO in serum using a specific ELISA assay.
Blood samples were collected 6 hours post-injection by carotid section under deep anesthesia with Imalgene/Rompun (1.6 mg of Ketamine/0.32 mg of Xylazine) in serum-separation tubes (BD Vacutainer #BD367957). Sera were aliquoted and stored at −20° C. until hEPO determination.
hEPO expression in mouse sera was assessed using human Erythropoietin Quantikine IVD ELISA kit (R&D Systems #DEP00). The ELISA was performed following supplier's instructions. Briefly, sera were added in pre-coated plates and incubated for one hour at room temperature under orbital shaking. After sera removal, Erythropoietin conjugate was added for one hour at room temperature under orbital shaking. Plates were washed and Substrate solution was added for 20-25 minutes at room temperature before stopping the reaction with Stop solution. Absorbance at 450 nm with 650 nm signal subtraction was determined in a microplate reader. Data were analyzed using SoftmaxPro software and expressed in log 10 of the concentration of hEPO measured in mouse sera in pg/mL.

[2] = UHPLC-CAD-MS analysis of cleavage of DOG-Cleave during LNP formulation process; format: physicochemical; settings: from extracted ion chromatograms, same response factor assumed

Compound | EPO secretion IM [1] [Log10 pg/ml] | other results
CCCCCCCC/C=C\CCCCCCCCOCC(COCCOCCOCCOCCOC(=O)CNCCOC(=O)CNCCOC)OCCCCCCCC/C=C\CCCCCCCC.O=C(O)C(F)(F)F.O=C(O)C(F)(F)F (centres unmarked) [Compound (III), 2-[[2-[2-[2-[2-[2-[2,3-bis[(Z)-octadec-9-enoxy]propoxy]ethoxy]ethoxy]ethoxy]ethoxy]-2-oxo-ethyl]amino]ethyl 2-(2-methoxyethylamino)acetate;2,2,2-trifluoroacetic Acid] | 1.5 | Relative amount in DOG-Cleave EtOH solution [2]: 75%; Relative amount in Final LNP [2]: 25%; Relative amount in LNP after 1st dialysis [2]: 59%
CCCCCCCC/C=C\CCCCCCCCOCC(COCCOCCOCCOCCOC(=O)CNCCOC(=O)[C@@H](N)COC)OCCCCCCCC/C=C\CCCCCCCC.Cl (stereo partly drawn) [Compound (VI), 2-[[2-[2-[2-[2-[2-[2,3-bis[(Z)-octadec-9-enoxy]propoxy]ethoxy]ethoxy]ethoxy]ethoxy]-2-oxoethyl]amino]ethyl (2S)-2-amino-3-methoxy-propanoate; Hydrochloride] | 2.1 | –
CCCCCCCCC=CCCCCCCCCOCC(OCCCCCCCCC=CCCCCCCCC)C(=O)N(CCCCCCCC)CCOCCOCCOCCOCCOC(=O)CNCCOC(=O)CNCCOC.O=C(O)C(F)(F)F (centres unmarked) [Compound (XIX), 2-[[2-[2-[2-[2-[2-[2-[2,3-bis[(Z)-octadec-9-enoxy]propanoyl-octylamino]ethoxy]ethoxy]ethoxy]ethoxy]ethoxy]-2-oxo-ethyl]amino]ethyl 2-(2-methoxyethylamino)acetate;2,2,2-trifluoroacetic Acid] | 2.4 | –
CCCCCCC(CCCC)C(=O)OCCCCCCOCC(COCCOCCOCCOCCOC(=O)CNCCOC(=O)CNCCOC)OCCCCCCOC(=O)C(CCCC)CCCCCC (centres unmarked) [Compound (XXII), 6-[2-[6-(2-butyloctanoyloxy)hexoxy]-3-[2-[2-[2-[2-[2-[2-[2-(2-methoxyethylamino)acetyl]oxyethylamino]acetyl]oxyethoxy]ethoxy]ethoxy]ethoxy]propoxy]hexyl 2-butyloctanoate;2,2,2-trifluoroacetic Acid] | 2.5 | –
CCCCCCCCC=CCCCCCCCCOCC(OCCCCCCCCC=CCCCCCCCC)C(CCCCCCCCCCCC)OC(=O)NCCOCCOCCOCCOC(=O)CNCCOC(=O)CNCCOC.O=C(O)C(F)(F)F (centres unmarked) [Compound (XXIV), 2-[[2-[2-[2-[2-[2-[1-[1,2-bis[(Z)-octadec-9-enoxy]ethyl]tridecoxycarbonylamino]ethoxy]ethoxy]ethoxy]ethoxy]-2-oxo-ethyl]amino]ethyl 2-(2-methoxyethylamino)acetate;2,2,2-trifluoroacetic Acid] | 1.9 | –
CCCCCCCCCOC(=O)CCCCCCCN(CCCCCCCC(=O)OC(CCCCCCCC)CCCCCCCC)C(=O)CCOCCOCCOCCOC(=O)CNCCOC(=O)CNCCOC [Compound (XXVII), nonyl 8-[3-[2-[2-[2-[2-[2-[2-(2-methoxyethylamino)acetyl]oxyethylamino]acetyl]oxyethoxy]ethoxy]ethoxy]propanoyl-[8-(1-octylnonoxy)-8-oxo-octyl]amino]octanoate;2,2,2-trifluoroacetic Acid] | 1.9 | –
CCCCCCCCC(CCCCCC)C(=O)OCCCCCCOCC(OCCCCCCOC(=O)C(CCCCCC)CCCCCCCC)C(=O)N(CCCCCCCC)CCOCCOCCOCCOCCOC(=O)CNCCOC(=O)CNCCOC (centres unmarked) [Compound (XXVIII), 6-[2-[6-(2-hexyldecanoyloxy)hexoxy]-3-[2-[2-[2-[2-[2-[2-[2-[2-(2-methoxyethylamino)acetyl]oxyethylamino]acetyl]oxyethoxy]ethoxy]ethoxy]ethoxy]ethyl-octyl-amino]-3-oxopropoxy]hexyl 2-hexyldecanoate;2,2,2-trifluoroacetic acid] | 2.3 | –
[(Z)-non-2-enyl] 8-[3-[2-[2-[2-[2-[2-[2-[2-(2-methoxyethylamino)acetyl]oxyethylamino]acetyl]oxyethoxy]ethoxy]ethoxy]ethoxy]-2-[8-[(Z)-non-2-enoxy]-8-oxo-octoxy]propoxy]octanoate;2,2,2-trifluoroacetic Acid [Compound (XVII)] | 2.4 | –
